Measurements taken from ChEMBL document CHEMBL4507281, “Data for DCP probe BI-4394” (2021).

Assays:
[1] = biological target: Serine/threonine-protein kinase Sgk3 (Homo sapiens) (UniProt Q96BR1); conditions: Compound concentration 100.0 nM
[2] = biological target: Mu-type opioid receptor (Homo sapiens) (UniProt P35372); conditions: Compound concentration 10.0 uM
[3] = biological target: Casein kinase I isoform gamma-2 (Homo sapiens) (UniProt P78368); conditions: Compound concentration 100.0 nM
[4] = biological target: G protein-coupled receptor kinase 4 (Homo sapiens) (UniProt P32298); conditions: Compound concentration 100.0 nM
Chain of G protein-coupled receptor kinase 4 (Homo sapiens) (P32298 whole entry, looked up): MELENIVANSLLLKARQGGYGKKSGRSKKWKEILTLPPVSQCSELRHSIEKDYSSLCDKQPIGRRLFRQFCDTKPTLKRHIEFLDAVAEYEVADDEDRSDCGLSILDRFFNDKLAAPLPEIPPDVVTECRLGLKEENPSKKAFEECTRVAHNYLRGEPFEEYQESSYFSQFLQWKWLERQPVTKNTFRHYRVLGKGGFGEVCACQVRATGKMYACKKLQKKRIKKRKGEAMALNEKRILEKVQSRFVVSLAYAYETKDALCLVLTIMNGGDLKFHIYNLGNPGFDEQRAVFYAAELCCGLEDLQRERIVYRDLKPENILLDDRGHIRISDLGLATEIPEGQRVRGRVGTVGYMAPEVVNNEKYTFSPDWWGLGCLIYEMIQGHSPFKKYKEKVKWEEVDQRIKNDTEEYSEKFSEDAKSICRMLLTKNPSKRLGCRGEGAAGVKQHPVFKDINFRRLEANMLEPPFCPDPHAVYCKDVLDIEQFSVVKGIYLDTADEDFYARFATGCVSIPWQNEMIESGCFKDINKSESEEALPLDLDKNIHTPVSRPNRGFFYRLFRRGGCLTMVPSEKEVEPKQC

[5] = biological target: Histamine H4 receptor (Homo sapiens) (UniProt Q9H3N8); conditions: Compound concentration 10.0 uM
[6] = biological target: Ribosomal protein S6 kinase alpha-6 (Homo sapiens) (UniProt Q9UK32); conditions: Compound concentration 100.0 nM
[7] = system: Tyrosine-protein kinase ABL1 (Homo sapiens), P00519 [Y253F]; conditions: Compound concentration 100.0 nM
[8] = biological target: D(3) dopamine receptor (Homo sapiens) (UniProt P35462); conditions: Compound concentration 10.0 uM
[9] = biological target: BMP-2-inducible protein kinase (Homo sapiens) (UniProt Q9NSY1); conditions: Compound concentration 100.0 nM
[10] = system: Fibroblast growth factor receptor 3 (Homo sapiens), P22607 [G697C]; conditions: Compound concentration 100.0 nM
[11] = system: Epidermal growth factor receptor (Homo sapiens), P00533 [T790M]; conditions: Compound concentration 100.0 nM
[12] = biological target: Megakaryocyte-associated tyrosine-protein kinase (Homo sapiens) (UniProt P42679); conditions: Compound concentration 100.0 nM
[13] = biological target: Activin receptor type-1-like (Homo sapiens) (UniProt P37023); conditions: Compound concentration 100.0 nM
[14] = biological target: Dual specificity tyrosine-phosphorylation-regulated kinase 2 (Homo sapiens) (UniProt Q92630); conditions: Compound concentration 100.0 nM
Chain of Dual specificity tyrosine-phosphorylation-regulated kinase 2 (Homo sapiens) (Q92630 whole entry): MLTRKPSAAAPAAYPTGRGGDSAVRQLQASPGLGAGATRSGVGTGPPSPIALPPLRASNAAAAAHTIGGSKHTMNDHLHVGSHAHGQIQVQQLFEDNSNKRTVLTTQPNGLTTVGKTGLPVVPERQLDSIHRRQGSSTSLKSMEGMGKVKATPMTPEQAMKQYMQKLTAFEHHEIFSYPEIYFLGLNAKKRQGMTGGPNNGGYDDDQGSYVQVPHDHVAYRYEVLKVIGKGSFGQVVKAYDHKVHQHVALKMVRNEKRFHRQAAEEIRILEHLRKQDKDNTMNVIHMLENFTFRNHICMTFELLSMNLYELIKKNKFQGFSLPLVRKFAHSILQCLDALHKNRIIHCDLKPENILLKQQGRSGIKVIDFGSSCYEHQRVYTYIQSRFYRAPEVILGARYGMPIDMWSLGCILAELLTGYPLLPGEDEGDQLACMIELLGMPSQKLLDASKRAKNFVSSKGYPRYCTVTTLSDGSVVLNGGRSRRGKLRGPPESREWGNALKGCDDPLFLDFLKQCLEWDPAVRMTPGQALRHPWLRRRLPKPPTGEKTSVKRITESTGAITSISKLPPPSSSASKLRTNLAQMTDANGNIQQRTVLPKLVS

[15] = biological target: cAMP-dependent protein kinase catalytic subunit beta (Homo sapiens) (UniProt P22694); conditions: Compound concentration 100.0 nM
[16] = biological target: Receptor tyrosine-protein kinase erbB-3 (Homo sapiens) (UniProt P21860); conditions: Compound concentration 100.0 nM
[17] = biological target: SRSF protein kinase 3 (Homo sapiens) (UniProt Q9UPE1); conditions: Compound concentration 100.0 nM
[18] = biological target: Ephrin type-A receptor 3 (Homo sapiens) (UniProt P29320); conditions: Compound concentration 100.0 nM
[19] = biological target: Serine/threonine-protein kinase 35 (Homo sapiens) (UniProt Q8TDR2); conditions: Compound concentration 100.0 nM
Chain of Serine/threonine-protein kinase 35 (Homo sapiens) (Q8TDR2 whole entry): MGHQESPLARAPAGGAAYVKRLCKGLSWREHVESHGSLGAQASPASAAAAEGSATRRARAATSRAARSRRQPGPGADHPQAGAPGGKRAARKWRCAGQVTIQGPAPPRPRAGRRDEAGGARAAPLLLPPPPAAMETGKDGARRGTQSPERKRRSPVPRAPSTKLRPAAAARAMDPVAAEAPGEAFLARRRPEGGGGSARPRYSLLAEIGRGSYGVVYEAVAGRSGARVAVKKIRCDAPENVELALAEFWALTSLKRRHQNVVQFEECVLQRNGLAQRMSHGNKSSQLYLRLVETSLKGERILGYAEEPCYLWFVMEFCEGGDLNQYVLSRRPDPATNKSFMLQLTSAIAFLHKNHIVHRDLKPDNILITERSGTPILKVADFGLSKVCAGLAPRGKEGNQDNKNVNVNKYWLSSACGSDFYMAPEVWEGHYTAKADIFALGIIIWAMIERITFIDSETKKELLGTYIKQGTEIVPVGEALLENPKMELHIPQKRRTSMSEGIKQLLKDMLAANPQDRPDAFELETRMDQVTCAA

[20] = biological target: T1, Serine/threonine-protein kinase Nek1 (Homo sapiens) (UniProt Q96PY6); conditions: Compound concentration 100.0 nM
T1 sequence (whole entry): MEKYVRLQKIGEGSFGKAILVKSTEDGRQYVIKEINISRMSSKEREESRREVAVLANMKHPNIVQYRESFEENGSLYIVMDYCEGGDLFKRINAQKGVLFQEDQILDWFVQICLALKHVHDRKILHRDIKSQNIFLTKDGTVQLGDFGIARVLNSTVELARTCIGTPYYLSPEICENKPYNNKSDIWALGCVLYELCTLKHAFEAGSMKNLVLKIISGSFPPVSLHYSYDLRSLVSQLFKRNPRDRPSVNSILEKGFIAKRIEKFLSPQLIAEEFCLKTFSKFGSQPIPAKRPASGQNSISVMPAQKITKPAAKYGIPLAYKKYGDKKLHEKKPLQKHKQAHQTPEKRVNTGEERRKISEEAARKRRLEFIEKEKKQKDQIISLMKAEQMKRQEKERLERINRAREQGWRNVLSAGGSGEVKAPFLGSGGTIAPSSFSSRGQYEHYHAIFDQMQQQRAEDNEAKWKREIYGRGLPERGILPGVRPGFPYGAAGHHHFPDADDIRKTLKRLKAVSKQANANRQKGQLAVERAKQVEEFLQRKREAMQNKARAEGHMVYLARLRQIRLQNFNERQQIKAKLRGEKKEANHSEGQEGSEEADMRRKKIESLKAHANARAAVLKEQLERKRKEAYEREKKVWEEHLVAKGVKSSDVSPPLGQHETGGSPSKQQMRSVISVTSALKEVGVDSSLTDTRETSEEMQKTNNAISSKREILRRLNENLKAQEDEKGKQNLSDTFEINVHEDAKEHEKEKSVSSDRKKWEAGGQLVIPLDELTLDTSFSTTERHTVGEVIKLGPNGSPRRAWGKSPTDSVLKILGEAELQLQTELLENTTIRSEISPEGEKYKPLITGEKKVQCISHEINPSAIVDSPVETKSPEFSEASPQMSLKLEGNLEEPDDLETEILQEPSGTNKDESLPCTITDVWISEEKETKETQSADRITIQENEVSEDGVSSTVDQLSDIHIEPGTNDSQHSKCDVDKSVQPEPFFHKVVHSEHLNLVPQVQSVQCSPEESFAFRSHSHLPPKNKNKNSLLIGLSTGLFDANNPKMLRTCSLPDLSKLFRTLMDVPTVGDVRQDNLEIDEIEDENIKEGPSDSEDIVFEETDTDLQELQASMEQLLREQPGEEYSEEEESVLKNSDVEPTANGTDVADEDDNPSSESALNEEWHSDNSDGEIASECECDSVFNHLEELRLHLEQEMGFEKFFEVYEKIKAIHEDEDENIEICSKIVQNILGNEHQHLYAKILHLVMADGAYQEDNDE

[21] = biological target: Dual specificity testis-specific protein kinase 1 (Homo sapiens) (UniProt Q15569); conditions: Compound concentration 100.0 nM
[22] = biological target: Fibroblast growth factor receptor 1 (Homo sapiens) (UniProt P11362); conditions: Compound concentration 100.0 nM
[23] = biological target: Serine/threonine-protein kinase SIK1 (Homo sapiens) (UniProt P57059); conditions: Compound concentration 100.0 nM
[24] = biological target: Mitogen-activated protein kinase 7 (Homo sapiens) (UniProt Q13164); conditions: Compound concentration 100.0 nM
Chain of Mitogen-activated protein kinase 7 (Homo sapiens) (Q13164 2-816 limits assumed): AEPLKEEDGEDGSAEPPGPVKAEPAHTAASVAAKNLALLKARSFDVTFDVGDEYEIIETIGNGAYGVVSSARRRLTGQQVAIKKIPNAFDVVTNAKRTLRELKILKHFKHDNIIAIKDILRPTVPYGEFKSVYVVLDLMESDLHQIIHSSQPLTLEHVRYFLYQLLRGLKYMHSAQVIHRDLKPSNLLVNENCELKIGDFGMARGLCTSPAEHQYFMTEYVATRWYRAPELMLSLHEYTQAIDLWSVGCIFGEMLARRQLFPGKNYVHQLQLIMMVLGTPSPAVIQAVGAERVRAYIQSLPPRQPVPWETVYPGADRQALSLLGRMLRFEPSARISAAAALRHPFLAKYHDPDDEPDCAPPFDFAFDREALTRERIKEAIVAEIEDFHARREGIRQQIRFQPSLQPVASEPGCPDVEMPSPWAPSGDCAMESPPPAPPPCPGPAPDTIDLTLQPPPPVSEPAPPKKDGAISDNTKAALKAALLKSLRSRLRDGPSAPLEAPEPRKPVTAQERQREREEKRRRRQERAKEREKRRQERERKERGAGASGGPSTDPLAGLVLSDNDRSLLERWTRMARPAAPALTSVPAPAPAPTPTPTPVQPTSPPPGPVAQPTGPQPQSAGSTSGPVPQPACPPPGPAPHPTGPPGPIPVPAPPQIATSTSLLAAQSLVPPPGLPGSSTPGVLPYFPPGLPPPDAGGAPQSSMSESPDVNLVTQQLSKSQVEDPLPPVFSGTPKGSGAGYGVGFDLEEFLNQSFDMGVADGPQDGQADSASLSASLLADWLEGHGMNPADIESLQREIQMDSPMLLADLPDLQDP

[25] = biological target: Ephrin type-A receptor 8 (Homo sapiens) (UniProt P29322); conditions: Compound concentration 100.0 nM
[26] = biological target: Alpha-1B adrenergic receptor (Homo sapiens) (UniProt P35368); conditions: Compound concentration 10.0 uM
[27] = system: Proto-oncogene tyrosine-protein kinase receptor Ret (Homo sapiens), P07949 [V804M]; conditions: Compound concentration 100.0 nM
[28] = biological target: Beta-adrenergic receptor kinase 1 (Homo sapiens) (UniProt P25098); conditions: Compound concentration 100.0 nM
[29] = biological target: 1-phosphatidylinositol 3-phosphate 5-kinase (Homo sapiens) (UniProt Q9Y2I7); conditions: Compound concentration 100.0 nM
Chain of 1-phosphatidylinositol 3-phosphate 5-kinase (Homo sapiens) (Q9Y2I7 whole entry): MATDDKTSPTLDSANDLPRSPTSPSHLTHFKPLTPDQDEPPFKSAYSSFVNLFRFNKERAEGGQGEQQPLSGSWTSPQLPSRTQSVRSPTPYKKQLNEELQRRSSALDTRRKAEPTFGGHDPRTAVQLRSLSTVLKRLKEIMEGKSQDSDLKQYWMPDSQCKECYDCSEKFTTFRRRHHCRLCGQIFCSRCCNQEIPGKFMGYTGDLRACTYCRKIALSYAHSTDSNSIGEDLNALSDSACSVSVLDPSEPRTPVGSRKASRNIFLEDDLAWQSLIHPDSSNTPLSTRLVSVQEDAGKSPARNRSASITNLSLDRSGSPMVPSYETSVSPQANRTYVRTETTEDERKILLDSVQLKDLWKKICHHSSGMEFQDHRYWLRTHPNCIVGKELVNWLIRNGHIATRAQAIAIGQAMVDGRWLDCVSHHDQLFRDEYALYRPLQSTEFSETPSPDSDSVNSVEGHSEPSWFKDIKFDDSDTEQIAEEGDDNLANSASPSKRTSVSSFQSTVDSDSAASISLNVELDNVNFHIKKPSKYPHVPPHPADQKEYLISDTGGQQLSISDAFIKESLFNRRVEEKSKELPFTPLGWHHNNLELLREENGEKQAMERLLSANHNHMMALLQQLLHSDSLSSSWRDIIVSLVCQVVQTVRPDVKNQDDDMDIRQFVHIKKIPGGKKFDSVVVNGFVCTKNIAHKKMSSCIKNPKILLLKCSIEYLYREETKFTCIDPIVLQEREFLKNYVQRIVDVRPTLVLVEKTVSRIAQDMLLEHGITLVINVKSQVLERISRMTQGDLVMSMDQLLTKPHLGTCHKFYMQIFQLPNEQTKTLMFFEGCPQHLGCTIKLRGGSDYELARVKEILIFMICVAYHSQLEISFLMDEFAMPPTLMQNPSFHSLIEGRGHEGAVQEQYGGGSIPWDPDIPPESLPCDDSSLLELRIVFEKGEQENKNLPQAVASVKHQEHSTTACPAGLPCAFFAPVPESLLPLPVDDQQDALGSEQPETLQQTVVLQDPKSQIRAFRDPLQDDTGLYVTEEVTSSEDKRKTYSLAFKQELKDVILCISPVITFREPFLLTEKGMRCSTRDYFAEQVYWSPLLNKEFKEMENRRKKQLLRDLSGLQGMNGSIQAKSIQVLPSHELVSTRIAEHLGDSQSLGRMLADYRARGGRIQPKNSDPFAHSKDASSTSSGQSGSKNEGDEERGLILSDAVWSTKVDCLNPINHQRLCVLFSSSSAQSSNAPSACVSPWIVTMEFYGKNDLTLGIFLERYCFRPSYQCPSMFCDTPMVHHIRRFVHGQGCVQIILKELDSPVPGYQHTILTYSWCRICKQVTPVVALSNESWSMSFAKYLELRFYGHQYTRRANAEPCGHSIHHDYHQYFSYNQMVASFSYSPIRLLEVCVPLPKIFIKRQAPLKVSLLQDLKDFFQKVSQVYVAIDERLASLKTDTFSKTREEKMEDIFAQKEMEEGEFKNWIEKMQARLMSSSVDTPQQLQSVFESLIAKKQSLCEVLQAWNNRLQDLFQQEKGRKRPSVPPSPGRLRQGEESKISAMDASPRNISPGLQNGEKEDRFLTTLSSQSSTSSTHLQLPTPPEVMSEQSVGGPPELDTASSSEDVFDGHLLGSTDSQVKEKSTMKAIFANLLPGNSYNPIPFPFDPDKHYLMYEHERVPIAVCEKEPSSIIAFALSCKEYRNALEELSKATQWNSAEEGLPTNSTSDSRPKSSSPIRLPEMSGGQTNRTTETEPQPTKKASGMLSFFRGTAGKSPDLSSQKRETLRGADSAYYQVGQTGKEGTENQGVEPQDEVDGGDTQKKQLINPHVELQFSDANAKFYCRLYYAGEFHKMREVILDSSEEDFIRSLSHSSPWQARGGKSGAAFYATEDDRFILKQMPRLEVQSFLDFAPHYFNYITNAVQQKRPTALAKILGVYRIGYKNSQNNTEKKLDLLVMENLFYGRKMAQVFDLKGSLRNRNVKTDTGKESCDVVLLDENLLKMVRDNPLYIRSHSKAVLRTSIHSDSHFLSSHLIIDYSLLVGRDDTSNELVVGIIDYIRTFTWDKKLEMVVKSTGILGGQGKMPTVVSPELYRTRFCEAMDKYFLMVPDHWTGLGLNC

Chain of Casein kinase I isoform gamma-2 (Homo sapiens) (P78368 whole entry, looked up, canonical isoform): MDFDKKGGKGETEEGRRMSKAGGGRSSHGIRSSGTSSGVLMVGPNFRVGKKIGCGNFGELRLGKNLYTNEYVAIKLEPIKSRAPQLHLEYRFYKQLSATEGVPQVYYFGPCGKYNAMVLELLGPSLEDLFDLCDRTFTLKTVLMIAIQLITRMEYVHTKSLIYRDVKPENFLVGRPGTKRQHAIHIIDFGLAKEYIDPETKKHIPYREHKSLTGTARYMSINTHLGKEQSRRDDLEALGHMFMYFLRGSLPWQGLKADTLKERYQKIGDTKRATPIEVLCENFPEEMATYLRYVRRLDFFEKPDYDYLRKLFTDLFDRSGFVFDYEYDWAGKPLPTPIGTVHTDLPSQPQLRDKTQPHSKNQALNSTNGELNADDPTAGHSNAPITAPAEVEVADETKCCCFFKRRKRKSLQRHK

Cn1nc(C(=O)NCc2ccc(C(=O)O)cc2)cc1-c1ccc2[nH]ccc2c1 [BI 4395]
inactive: residual activity [1] 96% | inhibition [2] 2.9% | residual activity [3] 90% | residual activity [4] 96% | inhibition [5] -6.14% | residual activity [6] 85% | residual activity [7] 100% | inhibition [8] 1.67% | residual activity [9] 82% | residual activity [10] 82% | residual activity [11] 100% | residual activity [12] 86% | residual activity [13] 97% | residual activity [14] 100% | residual activity [15] 98% | residual activity [16] 77% | residual activity [17] 100% | residual activity [18] 89% | residual activity [19] 94% | residual activity [20] 100% | residual activity [21] 92% | residual activity [22] 84% | residual activity [23] 100% | residual activity [24] 87% | residual activity [25] 92% | inhibition [26] -6.1% | residual activity [27] 91% | residual activity [28] 98% | residual activity [29] 100%

CCOC(=O)c1cc2cc(-c3cc(C(=O)NCc4ccc(C(=O)O)cc4)nn3C)ccc2[nH]1 [BI 4394]
inactive: residual activity [1] 82% | inhibition [2] 0.37% | residual activity [3] 79% | residual activity [4] 100% | inhibition [5] -1.52% | residual activity [6] 93% | residual activity [7] 93% | inhibition [8] 2.74% | residual activity [9] 100% | residual activity [10] 92% | residual activity [11] 89% | residual activity [12] 96% | residual activity [13] 68% | residual activity [14] 76% | residual activity [15] 86% | residual activity [16] 81% | residual activity [17] 100% | residual activity [18] 100% | residual activity [19] 94% | residual activity [20] 100% | residual activity [21] 97% | residual activity [22] 86% | residual activity [23] 97% | residual activity [24] 100% | residual activity [25] 100% | inhibition [26] -1.29% | residual activity [27] 76% | residual activity [28] 100% | residual activity [29] 100%
